Data set [1] has as its system LNCaP prostate cancer cells. The settings on record: literature; cited from earlier work.
Data set [2] deals with TNF-α. Nature of the data set: ELISA of TNF-α in PMA/LPS-treated THP-1 cells. The format is cell-based, human. Particulars: THP-1, PMA then LPS 100 ng/ml 24 hours, 5 uM compound added 2 hours before LPS. As for the experimental part: (§1) Human monocytes (THP-1, ATCC) were cultured in RPMI 1640 media supplemented with HEPES buffer (10 mM), sodium pyruvate (1 mM), glucose (4.5 g/L), fetal bovine serum (10%), penicillin (100 U/mL), streptomycin (100 μg/mL), and 2-mercaptoethanol (0.05 mM). THP-1 cells were treated with PMA (100 ng/ml) for 48 hours and then washed and rested for 24 hours in PMA-free media. These cells were treated with LPS (100 ng/ml) for 24 hours in the presence or absence of 5 uM of […] compounds (added 2 hours before LPS). Cell culture supernatants were collected and IL-1β (cat. No DLB50, R&D Systems), TNF-α (cat. no. DTA00D, R&D Systems) and IL-6 (cat. No D6050, R&D Systems) protein levels were evaluated by ELISA assay.

Data set [3] relates to IL-1β. The data set can be described thus: ELISA of IL-1β in PMA/LPS-treated THP-1 cells. The data set is classed as cell-based, human. Particulars: THP-1, PMA then LPS 100 ng/ml 24 hours, 5 uM compound added 2 hours before LPS. On the procedure: as §1
In general terms: ELISA stands for enzyme-linked immunosorbent assay.

Data set [4] has as its system Raw 264.7 cells. Nature of the data set: Raw 264.7 macrophage cell growth (trypan blue count). The data set is classed as cell-based, BALB/C mice. The settings on record: 1, 10, 25, 50, 100, 200 μM, 24 h. On the procedure: The effect of GS27 on the growth of Raw 264.7 cells was evaluated to examine GS27 potential toxicity effects. RAW 264.7 cells are macrophage-like Abelson leukemia virus transformed cell line derived from BALB/C mice. The cell line was obtained from ATCC.
RAW 264.7 cells were maintained at 37° C., in a 5% CO2 and 100% humidity incubator and grown in suspension, in non-adherent flasks, in RPMI 1640-Glutamax to which was added 50 U/mL of penicillin, 50 μg/mL streptomycin and 10% (v/v) fetal bovine serum (FBS). These cells were exposed to increasing doses of GS27 (1, 10, 25, 50, 100, 200 μM) for 24 h and after the exposure period, the cells were harvested with trypsin-EDTA and trypan blue was applied to the cell suspension. Non-colored and blue cells were counted while using an automated cell counter.

Data set [5] has as its system MCF-10A non-tumorigenic mammary epithelial cells. Nature of the data set: Cell Glo luminescence cell growth assay, MCF-10A normal cells. The data set is classed as cell-based, human. Particulars: 10 μM, forty-eight hours post-treatment. An excerpt: The CellTiter-Glo® Luminescent Cell Viability Assay (Promega Corporation; Madison, WI) is a homogeneous method of determining the number of viable cells in culture based on quantitation of the ATP present, an indicator of metabolically active cells. The homogeneous assay procedure involves adding the single reagent (CellTiter-Glo® Reagent) directly to cells cultured in serum-supplemented medium. The homogeneous “add-mix-measure” format results in cell lysis and generation of a luminescent signal proportional to the amount of ATP present. The amount of ATP is directly proportional to the number of cells present in culture.
Cancer cells (3,000 cells/well) were harvested in a 96-well plate. Then, the cancer cells were treated with GS compounds and incubated for 24 hours. The MT Cell Viability Substrate, NanoLuc® Enzyme and cell culture medium was equilibrated to 37° C. The 2× RealTime-Glo™ reagent was prepared by diluting the MT Cell Viability Substrate and NanoLuc® Enzyme in 37° C. cell culture medium to a 2× concentration for each reagent. […] The cells were kept for ˜20 minutes in the cell culture incubator and then luminescence was measured by using a plate-reading luminometer. […]
The effects of exemplary compounds on cancer cell lines and one non-tumorigenic cell line (control) were investigated using a high throughput screening assay. More specifically, the effects of the GS compounds on cell growth was evaluated by the XTT assay for cell lines HepG2, HeLa, MCF7 ER+, MDA-MB-231, and MKN-45, and by the Cell Glo luminescence assay for cell lines MIA PaCa-2, HCT-116, MCF-10A, and PANC-1. […]
The effect of GS27 on normal cell growth was evaluated using the MCF-10A cell line. […]
GS27, NDI-091143 and Nexletol (10 μM) were used to treat normal epithelial cells MCF-10A cells. […] Forty-eight hours post-treatment, the growth of MCF-10A cells was evaluated by CellTiter-Glo® Luminescent Cell Viability Assay, as discussed in Example 29.

Data set [6] concerns pAKT (S473). The data set can be described thus: ELISA of pAKT (S473) in PANC-1 cells. The data set is classed as cell-based, human. Particulars: rIGF1, 5 μM, 24 hours. As for the experimental part: (§2) ELISA assay was used to evaluate the effect of GS compounds on protein activity levels in PANC-1 cancer cells. PANC-1 cells were serum-starved overnight and then treated with rIGF1 (100 ng/mL) for 24 hours, with or without GS27 (5 μM). The levels of the following proteins were evaluated by ELISA assay: a) p70 S6 (T389) (cat no. 54164C, Cell Signaling); b) pAKT (S473), (cat no. 80895, Cell Signaling); c) pACLY (S455), (cat no. okag1672, Avivasysbio); d) pAMPK (T172) (cat no. 7959C, Cell Signaling) and e) p65/NFKB (S536), (cat no. 7173, Cell Signaling).
(§3) PANC-1 is a human pancreatic ductal adenocarcinoma cell line derived from the carcinoma of a person.
(§4) The molecular mechanism of action of GS27, a compound that has exerted potent anti-cancer activity in different cancer cell lines including pancreatic cancer cells, was investigated. Oleacein has been implicated to have anti-inflammatory and metabolic effects, thus the potential effects of GS27 in different metabolic and inflammatory pathways were evaluated. Specifically, the protein levels of p70 S6 (T389), pAKT (S473), pACLY (S455), pAMPK (T172) and p65/NFKB (S536) were evaluated by ELISA assay in PANC-1 pancreatic cancer cells treated with 5 μM GS27. GS27 reduced p70 S6 and AKT phosphorylation levels, while it increased AMPK phosphorylation.

Data set [7] concerns pAMPK (T172). Nature of the data set: ELISA of pAMPK (T172) in PANC-1 cells. The format is cell-based, human. Particulars: rIGF1, 5 μM, 24 hours. On the procedure:
as §2, §3, §4

Data set [8] relates to p65/NFKB (S536). Nature of the data set: ELISA of p65/NFKB (S536) in PANC-1 cells. The settings on record: rIGF1, 5 μM, 24 hours. The data set is classed as cell-based, human. On the procedure: as §2, §3, §4

Take `C/C=C(/C=O)[C@@H](CC=O)CC(=O)OCCc1ccc(O)cc1` [GS19, (3S,4E)-4-formyl-3-(2-oxoethyl)-4-hexenoic acid 2-(4-hydroxyphenyl)ethyl ester, reference compound]: in data set [1], the “concentration found to reduce LNCaP prostate cancer cell growth” value was 500 µM.

On to `C/C=C(/C=O)[C@@H](CC=O)CC(=O)OCCOc1ccccc1` [GS24, (3S,4E)-4-formyl-3-(2-oxoethyl)-4-hexenoic acid 2-phenoxyethyl ester], for which the TNF-α protein levels entry in data set [2] is “reducing substantially”. For the same molecule, the IL-1β protein levels result in data set [3] was “more effectively reduced”.

`C/C=C(/C=O)[C@@H](CC=O)CC(=O)SCCc1ccccc1` [GS27, S-phenethyl (3S,4E)-4-formyl-3-(2-oxoethyl)hex-4-enethioate]: the “effect on Raw 264.7 cell growth” value in data set [4] is on record as “no effect”. Moreover, the “effect on MCF-10A normal cell growth” value in data set [5] was “did not have any effect”. Also, in data set [6], the AKT phosphorylation levels entry is reported as “reduced”. In addition, the AMPK phosphorylation entry in data set [7] is “increased”. In data set [8], the p65/NFKB activity result is given as “inhibiting”.

The values above are taken from patent US12414960B2, “Analogues of oleuropein and oleacein and uses thereof” (Attica Sciences Ltd., priority 2020, dated 2025).
